Test results published in patent publication US7928078B2, “Conjugates of immune cell specific macrolide compounds with anti-inflammatory compounds for improved cellular targeting of anti-inflammatory therapy” (GlaxoSmithKline Istrazivacki Centar Zagreb D.O.O., priority 2001, dated 2011).

Experiments:
[1] = test system: OVA-induced lung eosinophilia; test: Model of lung eosinophilia in mice; format: in vivo, Balb/C mice; details: daily i.n. or i.p., different doses, 48 hours after OVA, t-test, p<0.05
Experimental: Model of Lung Eosinophilia in Mice
Male Balb/C mice with a body weight of 20-25 g were randomly divided into groups. They were sensibilized by an i.p. injection of ovalbumine (OVA, Sigma) on zero day and on the fourteenth day. On the twentieth day the mice were subjected to a provocative test by i.n. application of OVA (positive control or test groups) or PBS (negative control). 48 hours after i.n. application of OVA, the animals were anesthetized and the lungs were rinsed with 1 ml of PBS. The cells were separated on Cytospin 3 cytocentrifuge (Shandon). The cells were stained in Diff-Quick (Dade) and the percentage of eozinophiles was determined by differential counting of at least 100 cells.
Fluticasone and beclomethasone were used as standard substances under positive and negative control.
The compounds were administered daily i.n. or i.p. in different doses 2 days before provocative test and up to the completion of the test.

[2] = test system: mouse T-cell hybridoma 13; test: Assay of inhibition of mouse T-cell hybridoma 13 proliferation as a result of apoptose induction; format: cell-based; details: [3H] thymidine incorporation
Experimental: Assay of Inhibition of Mouse T-Cell Hybridoma 13 Proliferation as a Result of Apoptose Induction
In a 96-well plate triplicates of test steroid dilution in RPMI medium (Immunoloski zavod) with […] were performed. To the solutions of compounds 20 000 cells per well were added and incubated overnight at 37° C. in an atmosphere with 5% CO2, then 1 μCi of [^3H] thymidine (Pharmacia) was added and it was incubated for additional 3 hours. The cells were harvested by sucking over GF/C filter (Packard). Onto each well 30 μl of Microscynt O scintillation liquid (Packard) were added and the incorporated radioactivity was measured on a β-scintillation counter (Packard). The specifity of apoptose induction by glucocorticoids was proven by antagonising the proliferation inhibition with mifepristone (Sigma).

[3] = test system: interleukin-2 production induced by the stimulation via CD3 receptor; test: Assay of inhibition of interleukin-2 production; format: cell-based, mouse
Experimental: Assay of Inhibition of Interleukin-2 Production
Onto a 96-well plate (Nunc) 15 ng of 2C11 antibodies (Pharmingen) per well were added and left to adsorb in PBS buffer (pH=7.4) overnight at 4° C. PBS was removed, the plate was washed with RPMI medium and then 50,000 cells per well were added and incubated in the medium with and without a dilution of the test compounds. The concentration of IL-2 in the supernatant was measured by ELISA specific for mouse IL-2 (R&D Systems).

[4] = target: T1, alpha isoform of human glucocorticoid receptor (Homo sapiens, UniProt P04150); test: Assay of binding to the human glucocorticoid receptor ([3H] dexamethasone competition in transfected COS-1 cells); details: 24 nM [3H] dexamethasone
T1 construct: expressed in transfected cells; host or cells: COS-1 cells, transient transfection with pcDNA3.1 hygro(+) carrying the GR alpha cDNA
T1 sequence (P04150 1-777): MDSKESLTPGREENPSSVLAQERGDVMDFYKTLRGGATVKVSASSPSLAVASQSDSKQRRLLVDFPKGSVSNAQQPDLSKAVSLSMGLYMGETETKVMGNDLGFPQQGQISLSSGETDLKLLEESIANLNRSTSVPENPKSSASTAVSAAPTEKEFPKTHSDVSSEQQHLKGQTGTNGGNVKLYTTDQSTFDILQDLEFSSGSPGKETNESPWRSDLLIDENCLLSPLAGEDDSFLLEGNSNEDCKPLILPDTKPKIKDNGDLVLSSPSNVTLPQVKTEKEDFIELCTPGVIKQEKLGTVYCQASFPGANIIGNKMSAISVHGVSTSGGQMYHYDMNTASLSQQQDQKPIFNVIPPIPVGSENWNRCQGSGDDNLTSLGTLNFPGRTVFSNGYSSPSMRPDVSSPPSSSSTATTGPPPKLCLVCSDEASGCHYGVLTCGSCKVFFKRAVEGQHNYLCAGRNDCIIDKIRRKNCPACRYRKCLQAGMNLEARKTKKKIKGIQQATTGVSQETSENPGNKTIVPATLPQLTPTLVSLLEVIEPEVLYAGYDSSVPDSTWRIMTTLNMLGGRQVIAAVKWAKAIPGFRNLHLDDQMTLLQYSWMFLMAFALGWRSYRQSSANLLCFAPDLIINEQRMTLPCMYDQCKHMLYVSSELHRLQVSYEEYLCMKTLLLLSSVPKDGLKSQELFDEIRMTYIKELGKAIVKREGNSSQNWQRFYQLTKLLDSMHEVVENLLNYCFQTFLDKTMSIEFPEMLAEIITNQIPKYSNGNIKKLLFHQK
From the text: Assay of Binding to the Human Glucocorticoid Receptor
The gene for alpha isoform of human glucocorticoid receptor was cloned by reverse polymerase chain reaction. The total RNA was isolated from human peripheral blood lymphocites according to the instructions of the manufacturer (Qiagen), transcripted into cDNA with AMV reverse transcriptase (Roche) and the gene was multiplied by specific primers
The obtained reaction product was cloned into XhoI/BamHI site of Bluescript KS plasmid (Stratagene), subjected to sequencing by dideoxy fluorescent method with M13 and M13 rev primers (Mycrosynth) and then it was cloned into XhoI/BamHI site of pcDNA3.1 hygro(+)plasmid (Invitrogen). 1×10^5 COS-1 cells were seeded onto a 12-well plate (Falcon) in DMEM medium (Life Technologies) with 10% FBS (Biowhitaker) and cultivated up to a 70% confluence at 37° C. in an atmosphere with 5% CO2. The medium was removed and 1 μg of DNA, 7 μl of PLUS reagent and 2 μl of Lipofectamine (Life Technologies) in 500 μl DMEM were added per well. The cells were incubated at 37° C. in an atmosphere with 5% CO2 and after 5 hours the same volume of 20% FBS/DMEM was added. After 24 hours the medium was completely changed. 48 hours after the transfection, the test compounds in different concentrations and 24 nM [^3H] dexamethasone (Pharmacia) in DMEM medium were added. The cells were incubated for 90 minutes at 37° C. in an atmosphere with 5% CO2, washed three times with PBS buffer (Sigma), cooled to 4° C. (pH=7.4) and then lyzed in Tris buffer (pH=8.0) (Sigma) with 0.2% SDS (Sigma). After the addition of UltimaGold XR (Packard) scintillation liquid, the residual radioactivity was read in a Tricarb (Packard) β-scintillation counter.

[5] = test system: CHO and COS-1 cells; test: Assay of steroid introduction into cells; format: cell-based; details: 1 μM radioactive compound, 90 minutes, 37° C.
Experimental: Assay of Steroid Introduction into Cells
CHO and COS-1 cells were cultivated up to confluence in 75 cm^2 flasks in Hamm F 12 medium (Life Technologies) with 10% FBS (CHO) or in DMEM medium with 10% FBS (COS-1). 1 μM of radioactive compound 10 with total 2 μCi activity was added onto the cells and it was incubated for 90 minutes at 37° C. in an atmosphere with 5% CO2. The cell supernatant was collected, the cells were lysed and then the radioactivity in the cell lysate as well as in the cell supernatant was read.

[6] = Influence of compounds on the thymus weight; details: rats, s.c. implanted impregnated pellets, 7 days
From the text: Influence of Compounds on the Thymus Weight
Male Sprague Dawley rats with a body weight of 200 g were randomly divided into groups of six animals. To anaesthetized animals sterilized weighed pellets of filter paper were implanted s.c. dorsally. The pellets in the control group were impregnated with acetone, whereas in the test groups they were impregnated either with the standard (prednisolone, Sigma) or with the compound 10. After 7 days the animals were put to sleep and their thymuses were isolated and weighed. The systemic effects were estimated by comparing the thymus weight in the test and control groups.

SMILES	number of eosinophiles in the lung rinse with regard to the positive control [1]	inhibition of cell hybridoma 13 proliferation [2]	melting point [°C]	inhibition of interleukin-2 production [3]	competition with radioactive dexamethasone in the binding site on the glucocorticoid receptor [4]	accumulation in the cells versus cell supernatant [5]	effect on thymus weights with regard to the control [6]
CC[C@H]1OC(=O)[C@H](C)[C@@H](O[C@@H]2C[C@](C)(OC)[C@H](O)C(C)O2)[C@H](C)[C@@H](O[C@@H]2O[C@H](C)C[C@@H](N(C)C)[C@H]2O)[C@](C)(O)C[C@@H](C)CN(CCCNC(=O)[C@@]2(O)CCC3C4CCC5=CC(=O)CC[C@]5(C)C4[C@@H](O)C[C@@]32C)[C@H](C)[C@@H](O)[C@]1(C)O (stereo partly drawn) [Compound 8]	statistically significantly (t-test, p<0.05) reduced	demonstrated an inhibition	144	–	–	–	–
CC[C@H]1OC(=O)[C@H](C)[C@@H](O[C@@H]2C[C@](C)(OC)[C@H](O)C(C)O2)[C@H](C)[C@@H](O[C@@H]2O[C@H](C)C[C@@H](N(C)C)[C@H]2O)[C@](C)(O)C[C@@H](C)CN(CCCNC(=O)[C@@]2(O)[C@H](C)CC3C4C[C@H](F)C5=CC(=O)C=C[C@]5(C)[C@@]4(F)[C@@H](O)C[C@@]32C)[C@H](C)[C@@H](O)[C@]1(C)O (stereo partly drawn) [Compound 9]	statistically significantly (t-test, p<0.05) reduced	demonstrated an inhibition	169	demonstrate an inhibition	able to compete with radioactive dexamethasone	–	–
CC[C@H]1OC(=O)[C@H](C)[C@@H](O[C@@H]2C[C@](C)(OC)[C@H](O)C(C)O2)[C@H](C)[C@@H](O[C@@H]2O[C@H](C)C[C@@H](N(C)C)[C@H]2O)[C@](C)(O)C[C@@H](C)CN(CCCNC(=O)[C@@]2(O)[C@H](C)CC3C4CCC5=CC(=O)C=C[C@]5(C)[C@@]4(F)[C@@H](O)C[C@@]32C)[C@H](C)[C@@H](O)[C@]1(C)O (stereo partly drawn) [Compound 10]	statistically significantly (t-test, p<0.05) reduced	demonstrated an inhibition	170 to 175	demonstrate an inhibition	able to compete with radioactive dexamethasone	able to accumulate in the cells in a greater concentration than in the supernatant	–
C[C@]12C=CC(=O)C=C1CC[C@@H]1[C@@H]2[C@@H](O)C[C@@]2(C)[C@H]1CC[C@]2(O)C(=O)CO [standard, prednisolone]	–	–	–	–	–	–	statistically significantly reduced the thymus weights
